Test results reported in US12522602B2, “Derivatives having 2,3-dihydro-1H-indene or 2,3-dihydrobenzofuran moiety or pharmaceutically acceptable salt thereof and pharmaceutical compositions comprising the same” (YUHAN CORPORATION, priority 2019, dated 2026).

These compounds were tested on GM1 production in Jurkat cells (assay: cells). Conditions: not given.
Format: cell-based
For `CC1(C)Cc2ccc(-c3cccc(OC(F)(F)F)c3)cc2C1NC(=O)O[C@@H]1CN2CCC1CC2` (stereo partly drawn) [Example 80, (S)-quinuclidin-3-yl (2,2-dimethyl-6-(3-(trifluoromethoxy)phenyl)-2,3-dihydro-1H-inden-1-yl)carbamate], the IC50 was 0.0041 µM.

Same assay, conditions: Homo sapiens, Jurkat, 72 h
`CC1(C)Cc2cc(-c3ccc(OC(F)(F)F)cc3)ccc2C1NC(=O)O[C@@H]1CN2CCC1CC2` (stereo partly drawn) [Example 76, (S)-quinuclidin-3-yl (2,2-dimethyl-5-(4-(trifluoromethoxy)phenyl)-2,3-dihydro-1H-inden-1-yl)carbamate] was tested, and the IC50 was 0.0037 µM. `CC1(C)Cc2cc(-c3cccc(F)c3)ccc2C1NC(=O)O[C@@H]1CN2CCC1CC2` (stereo partly drawn) [Example 77, (S)-quinuclidin-3-yl (5-(3-fluorophenyl)-2,2-dimethyl-2,3-dihydro-1H-inden-1-yl)carbamate] showed an IC50 of 0.0063 µM. In the case of `CC1(C)Cc2cc(-c3cccc(Cl)c3)ccc2C1NC(=O)O[C@@H]1CN2CCC1CC2` (stereo partly drawn) [Example 78, (S)-quinuclidin-3-yl (5-(3-chlorophenyl)-2,2-dimethyl-2,3-dihydro-1H-inden-1-yl)carbamate], the IC50 is reported as 0.0035 µM. Work on `CC1(C)Cc2cc(-c3cccc(C(F)(F)F)c3)ccc2C1NC(=O)O[C@@H]1CN2CCC1CC2` (stereo partly drawn) [Example 79, (S)-quinuclidin-3-yl (2,2-dimethyl-5-(3-(trifluoromethyl)phenyl)-2,3-dihydro-1H-inden-1-yl)carbamate] yielded an IC50 of 0.0039 µM. `CC1(C)Cc2cc(-c3ccccc3F)ccc2C1NC(=O)O[C@@H]1CN2CCC1CC2` (stereo partly drawn) [Example 81, (S)-quinuclidin-3-yl (5-(2-fluorophenyl)-2,2-dimethyl-2,3-dihydro-1H-inden-1-yl)carbamate] gave an IC50 of 0.0122 µM. `CC1(C)Cc2cc(-c3ccccc3Cl)ccc2C1NC(=O)O[C@@H]1CN2CCC1CC2` (stereo partly drawn) [Example 82, (S)-quinuclidin-3-yl (5-(2-chlorophenyl)-2,2-dimethyl-2,3-dihydro-1H-inden-1-yl)carbamate] gave an IC50 of 0.0032 µM. In the case of `CC1(C)Cc2cc(-c3ccccc3C(F)(F)F)ccc2C1NC(=O)O[C@@H]1CN2CCC1CC2` (stereo partly drawn) [Example 83, (S)-quinuclidin-3-yl (2,2-dimethyl-5-(2-(trifluoromethyl)phenyl)-2,3-dihydro-1H-inden-1-yl)carbamate], the IC50 is reported as 0.0037 µM. `CC1(C)Cc2cc(-c3ccccc3OC(F)(F)F)ccc2C1NC(=O)O[C@@H]1CN2CCC1CC2` (stereo partly drawn) [Example 84, (S)-quinuclidin-3-yl (2,2-dimethyl-5-(2-(trifluoromethoxy)phenyl)-2,3-dihydro-1H-inden-1-yl)carbamate] showed an IC50 of 0.0049 µM. For `Cc1ccc(-c2ccc3c(c2)CC(C)(C)C3NC(=O)O[C@@H]2CN3CCC2CC3)cc1` (stereo partly drawn) [Example 85, (S)-quinuclidin-3-yl (2,2-dimethyl-5-(p-tolyl)-2,3-dihydro-1H-inden-1-yl)carbamate], the IC50 was 0.0116 µM. Work on `CC1(C)Cc2cc(-c3ccc(OC(F)F)cc3)ccc2C1NC(=O)O[C@@H]1CN2CCC1CC2` (stereo partly drawn) [Example 86, (S)-quinuclidin-3-yl (5-(4-(difluoromethoxy)phenyl)-2,2-dimethyl-2,3-dihydro-1H-inden-1-yl)carbamate] yielded an IC50 of 0.0138 µM. With `CC1(C)Cc2cc(-c3ccc(F)c(F)c3)ccc2C1NC(=O)O[C@@H]1CN2CCC1CC2` (stereo partly drawn) [Example 87, (S)-quinuclidin-3-yl (5-(3,4-difluorophenyl)-2,2-dimethyl-2,3-dihydro-1H-inden-1-yl)carbamate] the IC50 was 0.0428 µM. `CC1(C)Cc2cc(-c3cc(F)ccc3F)ccc2C1NC(=O)O[C@@H]1CN2CCC1CC2` (stereo partly drawn) [Example 88, (S)-quinuclidin-3-yl (5-(2,5-difluorophenyl)-2,2-dimethyl-2,3-dihydro-1H-inden-1-yl)carbamate] gave an IC50 of 0.0111 µM. `CC1(C)Cc2cc(-c3ccc(F)cc3F)ccc2C1NC(=O)O[C@@H]1CN2CCC1CC2` (stereo partly drawn) [Example 89, (S)-quinuclidin-3-yl (5-(2,4-difluorophenyl)-2,2-dimethyl-2,3-dihydro-1H-inden-1-yl)carbamate] was tested, and the IC50 was 0.05 µM. Compound `CC1(C)Cc2cc(-c3cc(F)cc(F)c3)ccc2C1NC(=O)O[C@@H]1CN2CCC1CC2` (stereo partly drawn) [Example 90, (S)-quinuclidin-3-yl (5-(3,5-difluorophenyl)-2,2-dimethyl-2,3-dihydro-1H-inden-1-yl)carbamate] has an IC50 of 0.0379 µM. `CC1(C)Cc2cc(-c3cccc(F)c3F)ccc2C1NC(=O)O[C@@H]1CN2CCC1CC2` (stereo partly drawn) [Example 91, (S)-quinuclidin-3-yl (5-(2,3-difluorophenyl)-2,2-dimethyl-2,3-dihydro-1H-inden-1-yl)carbamate] showed an IC50 of 0.0251 µM. In the case of `CC1(C)Cc2cc(-c3ccc(Cl)c(Cl)c3)ccc2C1NC(=O)O[C@@H]1CN2CCC1CC2` (stereo partly drawn) [Example 92, (S)-quinuclidin-3-yl (5-(3,4-dichlorophenyl)-2,2-dimethyl-2,3-dihydro-1H-inden-1-yl)carbamate], the IC50 is reported as 0.0439 µM. `CC1(C)Cc2cc(-c3cc(Cl)ccc3Cl)ccc2C1NC(=O)O[C@@H]1CN2CCC1CC2` (stereo partly drawn) [Example 93, (S)-quinuclidin-3-yl (5-(2,5-dichlorophenyl)-2,2-dimethyl-2,3-dihydro-1H-inden-1-yl)carbamate] showed an IC50 of 0.0105 µM. Compound `CC1(C)Cc2cc(-c3cc(Cl)cc(Cl)c3)ccc2C1NC(=O)O[C@@H]1CN2CCC1CC2` (stereo partly drawn) [Example 94, (S)-quinuclidin-3-yl (5-(3,5-dichlorophenyl)-2,2-dimethyl-2,3-dihydro-1H-inden-1-yl)carbamate] has an IC50 of 0.0236 µM. With `CC1(C)Cc2cc(-c3ccc(F)c(F)c3F)ccc2C1NC(=O)O[C@@H]1CN2CCC1CC2` (stereo partly drawn) [Example 95, (S)-quinuclidin-3-yl (2,2-dimethyl-5-(2,3,4-trifluorophenyl)-2,3-dihydro-1H-inden-1-yl)carbamate] the IC50 was 0.0497 µM. Compound `CC1(C)Cc2cc(-c3cc(F)c(F)cc3F)ccc2C1NC(=O)O[C@@H]1CN2CCC1CC2` (stereo partly drawn) [Example 96, (S)-quinuclidin-3-yl (2,2-dimethyl-5-(2,4,5-trifluorophenyl)-2,3-dihydro-1H-inden-1-yl)carbamate] has an IC50 of 0.0162 µM. For `COCCOc1ccc(-c2ccc3c(c2)CC(C)(C)C3NC(=O)O[C@@H]2CN3CCC2CC3)cc1` (stereo partly drawn) [Example 97, (S)-quinuclidin-3-yl (5-(4-(2-methoxyethoxy)phenyl)-2,2-dimethyl-2,3-dihydro-1H-inden-1-yl)carbamate], the IC50 was 0.0093 µM. Work on `COCCOc1cccc(-c2ccc3c(c2)CC(C)(C)C3NC(=O)O[C@@H]2CN3CCC2CC3)c1` (stereo partly drawn) [Example 98, (S)-quinuclidin-3-yl (5-(3-(2-methoxyethoxy)phenyl)-2,2-dimethyl-2,3-dihydro-1H-inden-1-yl)carbamate] yielded an IC50 of 0.0075 µM. Work on `COCCOc1ccccc1-c1ccc2c(c1)CC(C)(C)C2NC(=O)O[C@@H]1CN2CCC1CC2` (stereo partly drawn) [Example 99, (S)-quinuclidin-3-yl (5-(2-(2-methoxyethoxy)phenyl)-2,2-dimethyl-2,3-dihydro-1H-inden-1-yl)carbamate] yielded an IC50 of 0.0222 µM. With `COCOc1ccc(-c2ccc3c(c2)CC(C)(C)C3NC(=O)O[C@@H]2CN3CCC2CC3)cc1` (stereo partly drawn) [Example 100, (S)-quinuclidin-3-yl (5-(4-(methoxymethoxy)phenyl)-2,2-dimethyl-2,3-dihydro-1H-inden-1-yl)carbamate] the IC50 was 0.0215 µM. Compound `COCOc1cccc(-c2ccc3c(c2)CC(C)(C)C3NC(=O)O[C@@H]2CN3CCC2CC3)c1` (stereo partly drawn) [Example 101, (S)-quinuclidin-3-yl (5-(3-(methoxymethoxy)phenyl)-2,2-dimethyl-2,3-dihydro-1H-inden-1-yl)carbamate] has an IC50 of 0.0087 µM.
